“And” between values parts separate entries of the source, which are not always exact repeats. Equal entries are not always repeated.
Key:
Type in all cases: cell-based
[1] = biological target: panel of 320 non-olfactory GPCRs (Homo sapiens, UniProt O95977)
[2] = biological target: panel of 320 non-olfactory GPCRs (Homo sapiens, UniProt Q14330)
[3] = biological target: panel of 320 non-olfactory GPCRs (Homo sapiens, UniProt Q9HB89)
[4] = biological target: panel of 320 non-olfactory GPCRs (Homo sapiens, UniProt P21462)
[5] = biological target: panel of 320 non-olfactory GPCRs (Homo sapiens, UniProt Q9H228)
[6] = biological target: panel of 320 non-olfactory GPCRs (Homo sapiens, UniProt Q9NS67)
[7] = biological target: panel of 320 non-olfactory GPCRs (Homo sapiens, UniProt P32248)
[8] = biological target: panel of 320 non-olfactory GPCRs (Homo sapiens, UniProt Q9BZJ7)
[9] = biological target: panel of 320 non-olfactory GPCRs (Homo sapiens, UniProt Q9Y5N1)
[10] = biological target: panel of 320 non-olfactory GPCRs (Homo sapiens, UniProt P21731)
[11] = biological target: panel of 320 non-olfactory GPCRs (Homo sapiens, UniProt P47872)
[12] = biological target: panel of 320 non-olfactory GPCRs (Homo sapiens, UniProt Q8IWK6)
[13] = biological target: panel of 320 non-olfactory GPCRs (Homo sapiens, UniProt P41145)
[14] = biological target: panel of 320 non-olfactory GPCRs (Homo sapiens, UniProt Q8NFN8)
[15] = biological target: panel of 320 non-olfactory GPCRs (Homo sapiens, UniProt P51582)
[16] = biological target: panel of 320 non-olfactory GPCRs (Homo sapiens, UniProt Q96AM1)
[17] = biological target: panel of 320 non-olfactory GPCRs (Homo sapiens, UniProt Q96PE1)
[18] = biological target: panel of 320 non-olfactory GPCRs (Homo sapiens, UniProt Q15722)
[19] = biological target: panel of 320 non-olfactory GPCRs (Homo sapiens, UniProt P49146)
[20] = biological target: panel of 320 non-olfactory GPCRs (Homo sapiens, UniProt P28336)
[21] = biological target: panel of 320 non-olfactory GPCRs (Homo sapiens, UniProt P49286)
[22] = biological target: panel of 320 non-olfactory GPCRs (Homo sapiens, UniProt P47211)
[23] = biological target: panel of 320 non-olfactory GPCRs (Homo sapiens, UniProt Q9Y2T5)
[24] = biological target: panel of 320 non-olfactory GPCRs (Homo sapiens, UniProt Q9H244)
[25] = biological target: panel of 320 non-olfactory GPCRs (Homo sapiens, UniProt P50406)
[26] = biological target: panel of 320 non-olfactory GPCRs (Homo sapiens, UniProt Q96P69)
[27] = biological target: panel of 320 non-olfactory GPCRs (Homo sapiens, UniProt P34998)
[28] = biological target: panel of 320 non-olfactory GPCRs (Homo sapiens, UniProt P32238)
[29] = biological target: panel of 320 non-olfactory GPCRs (Homo sapiens, UniProt O14842)
[30] = biological target: panel of 320 non-olfactory GPCRs (Homo sapiens, UniProt P25100)
[31] = biological target: panel of 320 non-olfactory GPCRs (Homo sapiens, UniProt O14626)
[32] = biological target: panel of 320 non-olfactory GPCRs (Homo sapiens, UniProt P08913)
[33] = biological target: panel of 320 non-olfactory GPCRs (Homo sapiens, UniProt P32247)
[34] = biological target: panel of 320 non-olfactory GPCRs (Homo sapiens, UniProt P41587)
[35] = biological target: panel of 320 non-olfactory GPCRs (Homo sapiens, UniProt O00398)
[36] = biological target: panel of 320 non-olfactory GPCRs (Homo sapiens, UniProt Q8IZF7)
[37] = biological target: panel of 320 non-olfactory GPCRs (Homo sapiens, UniProt Q96CH1)
Further: test concentration or dose not given here.

Chain of panel of 320 non-olfactory GPCRs (Homo sapiens, UniProt P28336) (P28336 whole entry): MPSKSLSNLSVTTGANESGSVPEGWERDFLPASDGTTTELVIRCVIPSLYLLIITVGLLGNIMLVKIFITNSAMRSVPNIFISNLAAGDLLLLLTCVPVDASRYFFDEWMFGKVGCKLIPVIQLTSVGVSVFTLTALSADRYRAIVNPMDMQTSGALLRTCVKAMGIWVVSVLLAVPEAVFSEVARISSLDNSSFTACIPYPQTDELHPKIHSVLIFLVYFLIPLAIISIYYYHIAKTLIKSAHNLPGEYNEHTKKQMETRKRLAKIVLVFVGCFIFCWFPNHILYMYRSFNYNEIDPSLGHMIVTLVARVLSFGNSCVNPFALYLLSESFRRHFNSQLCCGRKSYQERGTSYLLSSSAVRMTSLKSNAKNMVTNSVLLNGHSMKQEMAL
Chain of panel of 320 non-olfactory GPCRs (Homo sapiens, UniProt Q96PE1) (Q96PE1 34-1338): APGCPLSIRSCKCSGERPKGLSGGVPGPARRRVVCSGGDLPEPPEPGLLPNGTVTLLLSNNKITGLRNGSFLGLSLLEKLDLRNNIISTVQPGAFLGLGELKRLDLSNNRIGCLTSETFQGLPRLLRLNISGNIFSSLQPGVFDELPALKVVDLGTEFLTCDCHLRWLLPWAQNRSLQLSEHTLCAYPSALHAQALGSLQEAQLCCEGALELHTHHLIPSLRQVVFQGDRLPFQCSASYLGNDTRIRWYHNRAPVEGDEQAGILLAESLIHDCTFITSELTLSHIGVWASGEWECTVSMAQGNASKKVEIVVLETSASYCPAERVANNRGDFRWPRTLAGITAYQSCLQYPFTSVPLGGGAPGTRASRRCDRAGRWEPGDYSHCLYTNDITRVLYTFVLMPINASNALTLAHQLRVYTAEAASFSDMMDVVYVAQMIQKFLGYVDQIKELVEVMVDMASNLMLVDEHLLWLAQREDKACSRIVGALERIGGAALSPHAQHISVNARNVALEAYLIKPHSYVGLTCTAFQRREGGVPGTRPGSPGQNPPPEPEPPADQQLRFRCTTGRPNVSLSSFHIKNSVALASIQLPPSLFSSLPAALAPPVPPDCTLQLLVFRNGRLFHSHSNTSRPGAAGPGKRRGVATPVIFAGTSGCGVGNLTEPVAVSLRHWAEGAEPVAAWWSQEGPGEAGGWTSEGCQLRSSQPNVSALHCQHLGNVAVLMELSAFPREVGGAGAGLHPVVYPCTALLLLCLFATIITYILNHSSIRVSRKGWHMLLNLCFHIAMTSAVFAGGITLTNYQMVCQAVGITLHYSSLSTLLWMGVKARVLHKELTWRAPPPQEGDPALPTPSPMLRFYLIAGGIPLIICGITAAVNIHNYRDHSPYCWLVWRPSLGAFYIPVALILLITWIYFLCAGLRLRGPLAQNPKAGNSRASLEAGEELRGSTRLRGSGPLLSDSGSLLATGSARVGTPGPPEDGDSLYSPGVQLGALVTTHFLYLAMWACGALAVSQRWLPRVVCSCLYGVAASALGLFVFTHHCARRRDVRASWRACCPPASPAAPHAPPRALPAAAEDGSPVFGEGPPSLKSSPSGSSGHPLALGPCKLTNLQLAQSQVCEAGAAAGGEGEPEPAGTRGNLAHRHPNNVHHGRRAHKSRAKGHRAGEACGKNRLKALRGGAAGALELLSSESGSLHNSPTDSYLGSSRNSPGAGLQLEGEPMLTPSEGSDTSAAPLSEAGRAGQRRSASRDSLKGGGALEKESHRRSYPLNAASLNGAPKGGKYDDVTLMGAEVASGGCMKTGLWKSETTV
Chain of panel of 320 non-olfactory GPCRs (Homo sapiens, UniProt P32248) (P32248 25-378): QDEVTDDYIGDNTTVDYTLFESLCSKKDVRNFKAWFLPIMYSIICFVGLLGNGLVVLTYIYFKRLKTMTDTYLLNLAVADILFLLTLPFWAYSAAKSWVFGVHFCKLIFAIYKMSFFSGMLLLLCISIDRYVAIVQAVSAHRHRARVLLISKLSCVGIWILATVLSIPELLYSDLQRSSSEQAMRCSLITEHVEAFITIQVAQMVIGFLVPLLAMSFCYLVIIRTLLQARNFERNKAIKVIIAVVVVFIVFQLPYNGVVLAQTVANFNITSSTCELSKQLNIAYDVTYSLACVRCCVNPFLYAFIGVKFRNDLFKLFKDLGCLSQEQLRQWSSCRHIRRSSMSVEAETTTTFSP
Chain of panel of 320 non-olfactory GPCRs (Homo sapiens, UniProt P08913) (P08913 whole entry): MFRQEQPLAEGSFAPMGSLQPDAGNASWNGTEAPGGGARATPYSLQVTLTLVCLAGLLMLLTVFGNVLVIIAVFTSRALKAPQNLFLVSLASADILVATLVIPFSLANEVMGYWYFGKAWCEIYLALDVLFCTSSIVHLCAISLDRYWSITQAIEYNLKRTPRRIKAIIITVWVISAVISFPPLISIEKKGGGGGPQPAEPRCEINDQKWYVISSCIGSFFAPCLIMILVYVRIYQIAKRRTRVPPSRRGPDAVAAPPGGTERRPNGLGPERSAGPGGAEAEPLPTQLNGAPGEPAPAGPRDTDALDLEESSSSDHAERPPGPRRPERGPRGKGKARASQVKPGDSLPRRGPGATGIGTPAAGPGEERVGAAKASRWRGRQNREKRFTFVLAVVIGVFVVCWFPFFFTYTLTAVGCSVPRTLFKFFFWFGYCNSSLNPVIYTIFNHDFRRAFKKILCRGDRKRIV
Chain of panel of 320 non-olfactory GPCRs (Homo sapiens, UniProt P25100) (P25100 whole entry): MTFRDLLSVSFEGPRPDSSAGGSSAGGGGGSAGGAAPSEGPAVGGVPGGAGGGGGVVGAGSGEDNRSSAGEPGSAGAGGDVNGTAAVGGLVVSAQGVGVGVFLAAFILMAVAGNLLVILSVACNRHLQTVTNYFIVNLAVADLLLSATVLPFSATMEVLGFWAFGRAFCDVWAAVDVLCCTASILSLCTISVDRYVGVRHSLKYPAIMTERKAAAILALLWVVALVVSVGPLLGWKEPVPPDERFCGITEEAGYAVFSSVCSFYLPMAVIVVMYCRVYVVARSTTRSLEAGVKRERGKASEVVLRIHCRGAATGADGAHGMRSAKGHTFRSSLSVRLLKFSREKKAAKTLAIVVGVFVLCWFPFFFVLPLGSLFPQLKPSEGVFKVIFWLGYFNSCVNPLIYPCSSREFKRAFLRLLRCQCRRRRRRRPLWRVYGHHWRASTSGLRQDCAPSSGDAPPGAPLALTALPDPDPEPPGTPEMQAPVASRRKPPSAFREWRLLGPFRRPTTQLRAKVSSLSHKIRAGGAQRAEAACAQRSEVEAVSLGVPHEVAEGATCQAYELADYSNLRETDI
Chain of panel of 320 non-olfactory GPCRs (Homo sapiens, UniProt P51582) (P51582 whole entry): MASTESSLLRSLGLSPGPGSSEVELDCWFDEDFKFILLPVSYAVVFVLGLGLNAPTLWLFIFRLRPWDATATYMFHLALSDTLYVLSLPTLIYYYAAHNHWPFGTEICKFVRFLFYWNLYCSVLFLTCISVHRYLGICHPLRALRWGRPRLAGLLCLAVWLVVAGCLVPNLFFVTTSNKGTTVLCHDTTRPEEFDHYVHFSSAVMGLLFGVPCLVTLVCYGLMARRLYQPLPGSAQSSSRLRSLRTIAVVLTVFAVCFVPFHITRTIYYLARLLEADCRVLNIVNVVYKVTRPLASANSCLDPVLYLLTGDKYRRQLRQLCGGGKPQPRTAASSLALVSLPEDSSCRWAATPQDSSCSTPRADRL
Chain of panel of 320 non-olfactory GPCRs (Homo sapiens, UniProt Q9NS67) (Q9NS67 whole entry): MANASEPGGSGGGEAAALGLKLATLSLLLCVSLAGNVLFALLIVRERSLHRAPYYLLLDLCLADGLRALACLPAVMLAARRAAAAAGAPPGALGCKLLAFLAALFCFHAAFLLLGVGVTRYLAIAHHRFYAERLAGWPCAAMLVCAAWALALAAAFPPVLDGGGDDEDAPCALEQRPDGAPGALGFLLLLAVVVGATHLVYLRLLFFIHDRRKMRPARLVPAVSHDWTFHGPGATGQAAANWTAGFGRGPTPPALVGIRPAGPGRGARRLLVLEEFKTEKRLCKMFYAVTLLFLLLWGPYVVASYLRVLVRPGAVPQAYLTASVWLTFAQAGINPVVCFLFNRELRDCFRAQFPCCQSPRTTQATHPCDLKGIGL
Chain of panel of 320 non-olfactory GPCRs (Homo sapiens, UniProt O14842) (O14842 whole entry): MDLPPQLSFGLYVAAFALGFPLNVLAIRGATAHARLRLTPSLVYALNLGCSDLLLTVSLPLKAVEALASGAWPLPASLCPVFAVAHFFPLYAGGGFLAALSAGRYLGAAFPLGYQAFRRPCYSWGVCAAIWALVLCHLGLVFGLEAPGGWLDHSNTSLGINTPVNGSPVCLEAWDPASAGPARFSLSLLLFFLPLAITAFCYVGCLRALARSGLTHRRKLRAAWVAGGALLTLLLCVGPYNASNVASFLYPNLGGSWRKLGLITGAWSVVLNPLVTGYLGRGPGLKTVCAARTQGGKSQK
Chain of panel of 320 non-olfactory GPCRs (Homo sapiens, UniProt O00398) (O00398 whole entry): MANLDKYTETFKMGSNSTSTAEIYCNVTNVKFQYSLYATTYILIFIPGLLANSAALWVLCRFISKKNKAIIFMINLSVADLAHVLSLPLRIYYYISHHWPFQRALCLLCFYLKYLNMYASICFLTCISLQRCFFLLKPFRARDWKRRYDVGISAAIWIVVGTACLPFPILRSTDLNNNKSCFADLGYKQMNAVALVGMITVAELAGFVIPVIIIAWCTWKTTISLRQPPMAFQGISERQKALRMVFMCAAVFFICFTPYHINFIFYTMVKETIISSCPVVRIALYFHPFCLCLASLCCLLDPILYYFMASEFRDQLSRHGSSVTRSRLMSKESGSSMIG
Chain of panel of 320 non-olfactory GPCRs (Homo sapiens, UniProt P21731) (P21731 whole entry): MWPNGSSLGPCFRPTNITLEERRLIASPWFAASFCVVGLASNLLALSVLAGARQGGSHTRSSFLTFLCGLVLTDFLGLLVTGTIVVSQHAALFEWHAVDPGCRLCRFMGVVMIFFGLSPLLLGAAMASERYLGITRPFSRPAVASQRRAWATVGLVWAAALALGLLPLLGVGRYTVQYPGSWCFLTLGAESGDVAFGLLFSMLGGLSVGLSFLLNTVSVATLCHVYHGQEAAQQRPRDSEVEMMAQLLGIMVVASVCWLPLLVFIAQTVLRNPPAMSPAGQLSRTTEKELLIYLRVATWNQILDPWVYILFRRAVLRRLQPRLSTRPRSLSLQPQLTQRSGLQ

Cc1cc(C(=O)NC(C)(c2ccco2)c2ccco2)nn1-c1cccc(C(F)(F)F)c1 [‘4936]
Fold of Basal RLU [1]: 0.7 fold and 0.5 fold | Fold of Basal RLU [2]: 1.1 fold and 1.3 fold and 1.6 fold and 1.7 fold | Fold of Basal RLU [3]: 0.9 and 1.5 | Fold of Basal RLU [4]: 1.8 and 2.2 and 1.2 and 1.7 | Fold of Basal RLU [5]: 1.2 and 1.9 and 1.3 | Fold of Basal RLU [6]: 0.5 and 0.7 and 0.6 | Fold of Basal RLU [7]: 0.9 and 0.7 and 0.6 | Fold of Basal RLU [8]: 0.7 and 1.4 and 0.9 | Fold of Basal RLU [9]: 1 and 0.5 and 0.6 | Fold of Basal RLU [10]: 0.7 and 1.2 and 0.8 | Fold of Basal RLU [11]: 1.6 and 1.3 | Fold of Basal RLU [12]: 0.7 fold and 1 fold | Fold of Basal RLU [13]: 1.5 fold and 0.8 fold and 1 fold | Fold of Basal RLU [14]: 0.8 and 1.2 and 0.6 | Fold of Basal RLU [15]: 1.4 fold and 1.8 fold and 1.7 fold | Fold of Basal RLU [16]: 0.6 fold and 0.8 fold and 0.9 fold | Fold of Basal RLU [17]: 0.6 fold and 0.5 fold and 0.9 fold and 1 fold | Fold of Basal RLU [18]: 0.6 and 1 and 0.9 and 0.8 | Fold of Basal RLU [19]: 1.1 fold and 0.9 fold and 0.7 fold | Fold of Basal RLU [20]: 2.2 and 1.8 and 1.2 and 1.3 | Fold of Basal RLU [21]: 1.4 fold and 2 fold and 2.5 fold and 2.8 fold | Fold of Basal RLU [22]: 1.3 and 1 and 0.7 and 1.4 | Fold of Basal RLU [23]: 1.8 fold and 1.9 fold and 2.1 fold

COC(=O)[C@@](C)(NC(=O)c1cc(C)n(-c2cccc(C(F)(F)F)c2)n1)c1cccs1 [‘1350]
Fold of Basal RLU [24]: 0.7 and 0.6 | Fold of Basal RLU [25]: 1.2 and 1 and 1.1 | Fold of Basal RLU [26]: 0.8 and 1 and 1.1 and 1.4 | Fold of Basal RLU [27]: 0.7 and 0.9 | Fold of Basal RLU [28]: 1.4 and 0.9 and 1.1 and 1.7 | Fold of Basal RLU [29]: 1.4 and 0.7 and 1.1 and 0.8 | Fold of Basal RLU [30]: 0.6 and 0.7 and 0.9 and 0.5 | Fold of Basal RLU [31]: 1.4 and 1 and 1.5 and 0.8 | Fold of Basal RLU [32]: 1.8 fold and 1.4 fold and 1.6 fold and 1.2 fold | Fold of Basal RLU [33]: 1.8 fold and 1.6 fold and 2.9 fold | Fold of Basal RLU [34]: 0.9 and 1 and 0.7 and 1.3 | Fold of Basal RLU [35]: 1.1 and 1 and 1.2 | Fold of Basal RLU [36]: 0.8 and 0.9 and 0.7 and 0.5 | Fold of Basal RLU [37]: 0.6 and 0.7 and 0.8

— publication PMC11882969 (Nature Communications, 2025)
